Results taken from US8030354B2, “Substituted biphenyl GPR40 modulators” (Amgen Inc., priority 2007, dated 2011).

biological target: GPR40 (Homo sapiens, UniProt O14842); test: Cell-based aequorin assay (CHO cells stably expressing GPR40 and aequorin); design: expressed in transfected cells; host or cells: CHO cells stably transfected with GPR40 and aequorin; conditions: activation of human GPR40, CHO cells, 0.01% HSA
Protocol: Briefly, the Aequorin assays were performed on doubly stable CHO cells expressing GPR40 and Aequorin DNA. […] The luminescence was recorded over a period of 20 seconds with a Microlumat luminometer (Berthold). […] The inositol phosphate assay was performed on an A9 cell line stably transfected with GPR40 (A9_GPR40). The cells were incubated with different concentrations of compounds and [^3H] inositol accumulation was measured after 1 hour.
Cell-based aequorin assays were employed to characterize the modulatory activity of compounds on the GPR40 signaling pathway. In an exemplary assay, CHO cells were stably transfected with both GPR40 and Aequorin (Euroscreen). Cells were detached from the tissue culture dish with 2 mL of trypsin (0.25%(w/v)). Trypsinization was halted with 28 mL of Hanks Buffered Salt Solution containing 20 mM Hepes (H/HBSS) and 0.01% fatty acid-free human serum albumin (HSA). Coelantrazine is added to 1 ug/mL, and the cells were incubated for 2 hours at room temperature. Compounds were dissolved in DMSO for preparation of 10 mM stock solutions. Compounds were diluted in H/HBSS containing 0.01% HSA. Serial dilutions of the test compounds were prepared to determine dose response.
Aequorin luminescence measurements were made using an EG&G Berthold 96-well luminometer, and the response was measured over a 20 second interval after cells and compounds were mixed. The maximum relative light units was plotted to determine dose response. The EC50 (effective concentration to reach 50% maximal response) was determined from the dose response plot.

Sequence of GPR40 (O14842 whole entry): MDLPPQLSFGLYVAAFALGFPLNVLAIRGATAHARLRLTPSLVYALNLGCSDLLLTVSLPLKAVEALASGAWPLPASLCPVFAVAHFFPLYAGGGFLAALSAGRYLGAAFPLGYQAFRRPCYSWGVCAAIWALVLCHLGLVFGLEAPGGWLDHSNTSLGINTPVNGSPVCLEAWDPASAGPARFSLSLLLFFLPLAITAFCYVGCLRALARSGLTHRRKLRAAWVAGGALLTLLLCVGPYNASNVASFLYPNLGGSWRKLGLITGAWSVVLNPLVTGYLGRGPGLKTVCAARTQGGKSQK

Row | EC50 | SMILES
1 | 1000 to 10000 nM | COc1ccc(F)c(-c2cc(C)c(COc3cccc(C(C)CC(=O)O)c3)cc2C(C)(C)C)c1 (single isomer, unassigned) [Example 64.3, (3R)-3-(3-(((2-(1,1-Dimethylethyl)-2′-fluoro-5-methyl-5′-(methyloxy)-1,1′-biphenyl-4-yl)methyl)oxy)phenyl)butanoic acid or (3S)-3-(3-(((2-(1,1-dimethylethyl)-2′-fluoro-5-methyl-5′-(methyloxy)-1,1′-biphenyl-4-yl)methyl)oxy)phenyl)butanoic acid]
2 | 1000 to 10000 nM | COc1ccc(F)c(-c2ccc(COc3cccc(C(CC(=O)O)C4CC4)c3F)cc2C(OC)C(C)(C)OC)c1 (single isomer, unassigned) [Example 83.33]
3 | 1000 to 10000 nM | COc1ccc(F)c(-c2ccc(COc3cccc(C(CC(=O)O)CC4CC4)c3)cc2CN2CCCC2)c1 (single isomer, unassigned) [Example 69.46, (3R)-4-Cyclopropyl-3-(3-(((2′-fluoro-5′-(methyloxy)-2-(1-pyrrolidinylmethyl)-1,1′-biphenyl-4-yl)methyl)oxy)phenyl)butanoic acid or (3S)-4-cyclopropyl-3-(3-(((2′-fluoro-5′-(methyloxy)-2-(1-pyrrolidinylmethyl)-1,1′-biphenyl-4-yl)methyl)oxy)phenyl)butanoic acid]
4 | 100 to 1000 nM | CCCC(CC(=O)O)c1cccc(OCc2ccc(-c3cccc(OC)c3)c(C3CCCCCC3)c2)c1 (single isomer, unassigned) [Example 80.1, (3R)-3-(3-(((2-Cycloheptyl-3′-(methyloxy)-1,1′-biphenyl-4-yl)methyl)oxy)phenyl)hexanoic acid or (3S)-3-(3-(((2-cycloheptyl-3′-(methyloxy)-1,1′-biphenyl-4-yl)methyl)oxy)phenyl)hexanoic acid]
5 | 100 to 1000 nM | COc1ccc(F)c(-c2ccc(COc3cccc([C@H](C)CC(=O)O)c3)cc2OC2CCCC2)c1 (single isomer, unassigned) [Example 32, (3R)-3-(3-(((2-(Cyclopentyloxy)-2′-fluoro-5′-(methyloxy)-1,1′-biphenyl-4-yl)methyl)oxy)phenyl)butanoic acid or (3S)-3-(3-(((2-(cyclopentyloxy)-2′-fluoro-5′-(methyloxy)-1,1′-biphenyl-4-yl)methyl)oxy)phenyl)butanoic acid]
6 | 100 to 1000 nM | CCC(CC(=O)O)c1cccc(OCc2ccc(-c3cc(OC)ccc3F)c(C3CCCC3(C)C)c2)c1F (single isomer, unassigned) [Example 100.2]
7 | 1000 to 10000 nM | COC[C@H](CC(=O)O)c1cccc(OCc2ccc(-c3cc(OC)ccc3F)c(C3=CCCC3(C)C)c2)c1 (single isomer, unassigned) [Example 74, (3R)-3-(3-(((2-(5,5-Dimethyl-1-cyclopenten-1-yl)-2′-fluoro-5′-(methyloxy)-1,1′-biphenyl-4-yl)methyl)oxy)phenyl)-4-(methyloxy)butanoic acid or (3S)-3-(3-(((2-(5,5-dimethyl-1-cyclopenten-1-yl)-2′-fluoro-5′-(methyloxy)-1,1′-biphenyl-4-yl)methyl)oxy)phenyl)-4-(methyloxy)butanoic acid]
8 | 100 to 1000 nM | CCC=C[C@H](CC(=O)O)c1cccc(OCc2ccc(-c3cc(OC)ccc3F)c(C(C)(C)C)c2)c1 (single isomer, unassigned) [Example 75, (3S)-3-(3-(((2-(1,1-Dimethylethyl)-2′-fluoro-5′-(methyloxy)-1,1′-biphenyl-4-yl)methyl)oxy)phenyl)-4-heptenoic acid or (3R)-3-(3-(((2-(1,1-dimethylethyl)-2′-fluoro-5′-(methyloxy)-1,1′-biphenyl-4-yl)methyl)oxy)phenyl)-4-heptenoic acid]
9 | 100 to 1000 nM | CCCCOc1cc(COc2cccc(C(CC)CC(=O)O)c2)ccc1-c1cccc(OC)c1 (single isomer, unassigned) [Example 65.2, (3R)-3-(3-(((2-(Butyloxy)-3′-(methyloxy)-1,1′-biphenyl-4-yl)methyl)oxy)phenyl)pentanoic acid or (3S)-3-(3-(((2-(butyloxy)-3′-(methyloxy)-1,1′-biphenyl-4-yl)methyl)oxy)phenyl)pentanoic acid]
10 | 100 to 1000 nM | COc1ccc(F)c(-c2ccc(COc3cccc([C@H](C)CC(=O)O)c3)cc2OC2CCCCO2)c1 (single isomer, unassigned) [Example 26, (3R)-3-(3-(((2′-Fluoro-5′-(methyloxy)-2-(tetrahydro-2H-pyran-2-yloxy)-1,1′-biphenyl-4-yl)methyl)oxy)phenyl)butanoic acid or (3S)-3-(3-(((2′-fluoro-5′-(methyloxy)-2-(tetrahydro-2H-pyran-2-yloxy)-1,1′-biphenyl-4-yl)methyl)oxy)phenyl)butanoic acid]
11 | 100 to 1000 nM | COc1ccc(F)c(-c2ccc(COc3cccc(C(CCC(F)(F)F)CC(=O)O)c3)cc2C(C)(C)C)c1 (single isomer, unassigned) [Example 68.1, (3R)-3-(3-(((2-(1,1-Dimethylethyl)-2′-fluoro-5′-(methyloxy)-1,1′-biphenyl-4-yl)methyl)oxy)phenyl)-6,6,6-trifluorohexanoic acid or (3S)-3-(3-(((2-(1,1-dimethylethyl)-2′-fluoro-5′-(methyloxy)-1,1′-biphenyl-4-yl)methyl)oxy)phenyl)-6,6,6-trifluorohexanoic acid]
12 | 1000 to 10000 nM | CCC[C@H](CC(=O)O)c1cccc(OCc2ccc(-c3cc(OC)ccc3F)c(COCC)c2)c1 (single isomer, unassigned) [Example 67.23, (3R)-3-(3-(((2-((Ethyloxy)methyl)-2′-fluoro-5′-(methyloxy)-1,1′-biphenyl-4-yl)methyl)oxy)phenyl)hexanoic acid or (3S)-3-(3-(((2-((ethyloxy)methyl)-2′-fluoro-5′-(methyloxy)-1,1′-biphenyl-4-yl)methyl)oxy)phenyl)hexanoic acid]
13 | 100 to 1000 nM | CCCC(CC(=O)O)c1cccc(OCc2ccc(-c3cc(OC)ccc3F)c(C3=CCC(C)(C)CC3)c2)c1 (single isomer, unassigned) [Example 67.5, (3R)-3-(3-(((2-(4,4-Dimethyl-1-cyclohexen-1-yl)-2′-fluoro-5′-(methyloxy)-1,1′-biphenyl-4-yl)methyl)oxy)phenyl)hexanoic acid or (3S)-3-(3-(((2-(4,4-dimethyl-1-cyclohexen-1-yl)-2′-fluoro-5′-(methyloxy)-1,1′-biphenyl-4-yl)methyl)oxy)phenyl)hexanoic acid]
14 | 1000 to 10000 nM | CCCCOc1cc(COc2cccc([C@H](C)CC(=O)O)c2)ccc1-c1ccccc1F (single isomer, unassigned) [Example 24, (3R)-3-(3-(((2-(Butyloxy)-2′-fluoro-1,1′-biphenyl-4-yl)methyl)oxy)phenyl)butanoic acid or (3S)-3-(3-(((2-(butyloxy)-2′-fluoro-1,1′-biphenyl-4-yl)methyl)oxy)phenyl)butanoic acid]
15 | 1000 to 10000 nM | COc1ccc(F)c(-c2ccc(COc3cccc([C@@H](CC(=O)O)c4ccon4)c3)cc2C(C)(C)C)c1 [Example 94.2, (3R)-3-(3-(((2-(1,1-Dimethylethyl)-2′-fluoro-5′-(methyloxy)-1,1′-biphenyl-4-yl)methyl)oxy)phenyl)-3-(3-isoxazolyl)propanoic acid]
16 | 100 to 1000 nM | CC1(C)CCC=C1c1cc(COc2cccc([C@@H](CC(=O)O)C3CC3)c2)ccc1-c1cc(O)ccc1F (single isomer, unassigned) [Example 66.14, (3S)-3-Cyclopropyl-3-(3-(((2-(5,5-dimethyl-1-cyclopenten-1-yl)-2′-fluoro-5′-hydroxy-1,1′-biphenyl-4-yl)methyl)oxy)phenyl)propanoic acid or (3R)-3-cyclopropyl-3-(3-(((2-(5,5-dimethyl-1-cyclopenten-1-yl)-2′-fluoro-5′-hydroxy-1,1′-biphenyl-4-yl)methyl)oxy)phenyl)propanoic acid]
17 | 100 to 1000 nM | COc1ccc(F)c(-c2ccc(COc3cccc(CC(C)C(=O)O)c3)cc2C2CCCC2(C)C)c1 (single isomer, unassigned) [Example 62.2, (2R)-3-(3-(((2-(2,2-Dimethylcyclopentyl)-2′-fluoro-5′-(methyloxy)-1,1′-biphenyl-4-yl)methyl)oxy)phenyl)-2-methylpropanoic acid or (2S)-3-(3-(((2-(2,2-dimethylcyclopentyl)-2′-fluoro-5′-(methyloxy)-1,1′-biphenyl-4-yl)methyl)oxy)phenyl)-2-methylpropanoic acid]
18 | 100 to 1000 nM | CCCCOc1cc(COc2cccc(C(CCC)CC(=O)O)c2)ccc1-c1cccc(OC)c1 (single isomer, unassigned) [Example 67.13, (3R)-3-(3-(((2-(Butyloxy)-3′-(methyloxy)-1,1′-biphenyl-4-yl)methyl)oxy)phenyl)hexanoic acid or (3S)-3-(3-(((2-(butyloxy)-3′-(methyloxy)-1,1′-biphenyl-4-yl)methyl)oxy)phenyl)hexanoic acid]
19 | 100 to 1000 nM | CC1(C)CCC[C@@H]1c1cc(COc2cccc([C@@H](CC(=O)O)C3CC3)c2F)ccc1-c1ccccc1F (single isomer, unassigned) [Example 83.23]

Row | SMILES | EC50
20 | COc1ccc(F)c(-c2ccc(COc3cccc([C@@H](CC(=O)O)C4CC4)c3)cc2[C@@H]2CCCCC2(C)C)c1 (single isomer, unassigned) [Example 66.21] | 100 to 1000 nM
